Experiments:
healthy volunteers = assay: Treatment of healthy volunteers (12 weeks); type: in vivo, human; conditions: after 12 weeks in healthy volunteers
healthy human volunteers = assay: Phase Ia Study in Healthy Volunteers; type: in vivo; conditions: for Change from Baseline for Lean Muscle, Comparison to Placebo Difference / Change from Baseline for Lean Muscle, LS Mean: Day 28
beagle dogs = assay: Four Week Oral Toxicity Study in Dogs; type: in vivo, dog
Experimental: […] One additional group of three animals/sex serves as the control and receives the vehicle, 80% PEG 3350/20% Vitamin E TPGS (v/v) via oral capsule. The test article or vehicle is administered to all groups via oral capsule, twice a day for 28 consecutive days, at a dose volume of 1.5 mL/kg/dose.
Observations for mortality, morbidity, injury, and the availability of food and water are conducted twice daily for all animals. Detailed clinical observations are conducted weekly. Body weights are measured and recorded the day after receipt, prior to randomization, and weekly during the study. Food consumption is measured and recorded weekly. Ophthalmoscopic examinations are conducted pretest and prior to the terminal necropsy. Physical examinations are conducted pretest. Neurological examinations are conducted during Weeks 1 and 4. ECG examinations are conducted twice prior to the initiation of dosing and prior to and approximately 2 hours (±15 minutes) after the morning test article administration on Days 3 and 26. […] The toxicokinetic parameters are determined for the test article from concentration-time data in the test species. At study termination, necropsy examinations are performed, organ weights are recorded, and testes, epididymis, and prostates are microscopically examined.

[1] = Four Week Oral Toxicity Study in Rats; type: in vivo, rat; conditions: CD [Crl:CD (SD)], rat
Experimental: (§1) Three treatment groups of 10 male and 10 female CD® [Crl:CD® (SD)] rats are administered the test article at respective dose levels of 15, 150, and 1500 mg/kg/day. […] The test article or vehicle is administered to all groups via oral gavage, once a day for 28 consecutive days, at a dose volume of 15 mL/kg. Additionally, three groups of 18 animals/sex/group serves as toxicokinetic (TK) animals and receives the test article in the same manner and dose volume as the main study groups at respective dose levels of 15, 150, and 1500 mg/kg/day. One additional group of three animals/sex serves as the toxicokinetic control and receives the vehicle in the same manner and dose volume as the treated groups.
(§2) Observations for morbidity, mortality, injury, and the availability of food and water are conducted twice daily for all animals. Observations for clinical signs are conducted weekly for main study animals only. Body weights were measured and recorded weekly for all animals and food consumption is measured and recorded weekly for main study animals. Ophthalmoscopic examinations are conducted pretest on all animals and prior to terminal necropsy for main study animals only. Blood samples for clinical pathology evaluations are collected from all main study animals at necropsy. Urine samples are collected on the last day of dosing. Blood samples for determination of the plasma concentrations of the test article are collected from TK animals at designated time points on Days 1 and 28. After the final blood collection, the TK animals are euthanized and the carcasses are discarded without further evaluation. Liver samples for hepatic enzyme induction analysis are collected at terminal necropsy from main study animals. At study termination, necropsy examinations are performed, organ weights are recorded, and prostate and seminal vesicle tissues are microscopically examined. Additional microscopic examination is performed on the left testis from the first five male rats/group at necropsy.

CD [Crl:CD (SD)] rats = assay: Four Week Oral Toxicity Study in Rats; type: in vivo, rat; conditions: for decrease in albumin / decrease in total protein / increase in alkaline phosphatase: females
Experimental: as §1, §2

[2] = test system: LnCAP human prostate cancer cells; assay: LnCAP Gene Expression; type: cell-based
ORX Wistar male rats = assay: In Vivo Study to Explore Direct Antagonist Effect of Example 1 in the Presence of TE; design: species or system rat; conditions: for Seminal Vesicle Wet Weights, Abs(Dif) − LSD / Prostate Weights, Abs(Dif) − LSD: vs TE alone; for Prostate Weight, % Sham / SV Weight, % Sham: 8 weeks
Experimental: Route of administration for all groups except TE is oral. TE is administered subcutaneously. At the end of 8 weeks of daily dosing, rats are euthanized, weighed & tissue harvested. Levator ani, prostates, and seminal vesicles are collected from each animal. Results are plotted as means±SE.

[3] = ORX + TE 1 mg/kg/d + Example 1 3 mg/kg/d po
[4] = ORX + TE 1 mg/kg/d + Example 1 3 mg/kg/d
[5] = ORX + TE 1 mg/kg/d + Example 1 10 mg/kg/d po
[6] = ORX + TE 1 mg/kg/d + Example 1 10 mg/kg/d
[7] = ORX + TE 1 mg/kg/d + Example 1 30 mg/kg/d

For `CC(C)OC(=O)N[C@H]1Cc2c(n(Cc3ccccn3)c3ccc(C#N)cc23)C1` (single isomer, unassigned) [Example 1], the hematocrit (healthy volunteers) was “no significant changes”, the “prostate specific antigen (PSA)” value (healthy volunteers) was “no significant changes” and the “changes from baseline in prostate-specific antigen levels compared with placebo” value (healthy human volunteers; any time point or any dose) was “no significant changes”. For the same compound, the “Change from Baseline for Lean Muscle, Comparison to Placebo Difference” value (healthy human volunteers; females, 5 mg) was 2298.22 g, the “Change from Baseline for Lean Muscle, LS Mean” value (healthy human volunteers; females, 5 mg) was 1555.95 g and the “Change from Baseline for Lean Muscle, Comparison to Placebo Difference” value (healthy human volunteers; females, 15 mg) was 3661.85 g. For the same compound, the “Change from Baseline for Lean Muscle, LS Mean” value (healthy human volunteers; females, 15 mg) was 2919.58 g, the “Change from Baseline for Lean Muscle, Comparison to Placebo Difference” value (healthy human volunteers; females, 25 mg) was 2224.51 g and the “Change from Baseline for Lean Muscle, LS Mean” value (healthy human volunteers; females, 25 mg) was 1482.24 g. The “Change from Baseline for Lean Muscle, Comparison to Placebo Difference” value (healthy human volunteers; females, 75 mg) was 2325.92 g, the “Change from Baseline for Lean Muscle, LS Mean” value (healthy human volunteers; females, 75 mg) was 1583.65 g and the “Change from Baseline for Lean Muscle, Comparison to Placebo Difference” value (healthy human volunteers; males, 1 mg) was 1548.97 g. For the same compound, the “Change from Baseline for Lean Muscle, LS Mean” value (healthy human volunteers; males, 1 mg) was 675.52 g, the “Change from Baseline for Prostate Specific Antigen, Comparison to Placebo Difference” value (healthy human volunteers; males, 1 mg, day 14) was -0.10 µg/L and the “Change from Baseline for Prostate Specific Antigen, LS Mean” value (healthy human volunteers; males, 1 mg, day 14) was -0.06 µg/L. The “Change from Baseline for Prostate Specific Antigen, Comparison to Placebo Difference” value (healthy human volunteers; males, 1 mg, day 28) was -0.09 µg/L, the “Change from Baseline for Prostate Specific Antigen, LS Mean” value (healthy human volunteers; males, 1 mg, day 28) was -0.05 µg/L and the “Change from Baseline for Prostate Specific Antigen, Comparison to Placebo Difference” value (healthy human volunteers; males, 1 mg, day 35) was -0.01 µg/L. The “Change from Baseline for Prostate Specific Antigen, LS Mean” value (healthy human volunteers; males, 1 mg, day 35) was 0.02 µg/L, the “Change from Baseline for Lean Muscle, Comparison to Placebo Difference” value (healthy human volunteers; males, 5 mg) was 1461.11 g and the “Change from Baseline for Lean Muscle, LS Mean” value (healthy human volunteers; males, 5 mg) was 587.66 g. The “Change from Baseline for Prostate Specific Antigen, Comparison to Placebo Difference” value (healthy human volunteers; males, 5 mg, day 14) was 0.16 µg/L, the “Change from Baseline for Prostate Specific Antigen, LS Mean” value (healthy human volunteers; males, 5 mg, day 14) was 0.20 µg/L and the “Change from Baseline for Prostate Specific Antigen, Comparison to Placebo Difference” value (healthy human volunteers; males, 5 mg, day 28) was -0.05 µg/L. For the same compound, the “Change from Baseline for Prostate Specific Antigen, LS Mean” value (healthy human volunteers; males, 5 mg, day 28) was -0.00 µg/L, the “Change from Baseline for Prostate Specific Antigen, Comparison to Placebo Difference” value (healthy human volunteers; males, 5 mg, day 35) was 0.17 µg/L and the “Change from Baseline for Prostate Specific Antigen, LS Mean” value (healthy human volunteers; males, 5 mg, day 35) was 0.20 µg/L. For the same compound, the “Change from Baseline for Lean Muscle, Comparison to Placebo Difference” value (healthy human volunteers; males, 15 mg) was 3202.54 g, the “Change from Baseline for Lean Muscle, LS Mean” value (healthy human volunteers; males, 15 mg) was 2329.08 g and the “Change from Baseline for Prostate Specific Antigen, Comparison to Placebo Difference” value (healthy human volunteers; males, 15 mg, day 14) was -0.16 µg/L. The “Change from Baseline for Prostate Specific Antigen, LS Mean” value (healthy human volunteers; males, 15 mg, day 14) was -0.11 µg/L, the “Change from Baseline for Prostate Specific Antigen, Comparison to Placebo Difference” value (healthy human volunteers; males, 15 mg, day 28) was -0.31 µg/L and the “Change from Baseline for Prostate Specific Antigen, LS Mean” value (healthy human volunteers; males, 15 mg, day 28) was -0.27 µg/L. The “Change from Baseline for Prostate Specific Antigen, Comparison to Placebo Difference” value (healthy human volunteers; males, 15 mg, day 35) was 0.22 µg/L, the “Change from Baseline for Prostate Specific Antigen, LS Mean” value (healthy human volunteers; males, 15 mg, day 35) was 0.25 µg/L and the “Change from Baseline for Lean Muscle, Comparison to Placebo Difference” value (healthy human volunteers; males, 25 mg) was 1829.63 g. The “Change from Baseline for Lean Muscle, LS Mean” value (healthy human volunteers; males, 25 mg) was 956.18 g, the “Change from Baseline for Prostate Specific Antigen, Comparison to Placebo Difference” value (healthy human volunteers; males, 25 mg, day 14) was -0.19 µg/L and the “Change from Baseline for Prostate Specific Antigen, LS Mean” value (healthy human volunteers; males, 25 mg, day 14) was -0.15 µg/L. The “Change from Baseline for Prostate Specific Antigen, Comparison to Placebo Difference” value (healthy human volunteers; males, 25 mg, day 28) was -0.27 µg/L, the “Change from Baseline for Prostate Specific Antigen, LS Mean” value (healthy human volunteers; males, 25 mg, day 28) was -0.22 µg/L and the “Change from Baseline for Prostate Specific Antigen, Comparison to Placebo Difference” value (healthy human volunteers; males, 25 mg, day 35) was -0.17 µg/L. The “Change from Baseline for Prostate Specific Antigen, LS Mean” value (healthy human volunteers; males, 25 mg, day 35) was -0.14 µg/L, the “Change from Baseline for Lean Muscle, Comparison to Placebo Difference” value (healthy human volunteers; males, 75 mg) was -683.76 g and the “Change from Baseline for Lean Muscle, LS Mean” value (healthy human volunteers; males, 75 mg) was -1557.21 g. For the same compound, the “Change from Baseline for Prostate Specific Antigen, Comparison to Placebo Difference” value (healthy human volunteers; males, 75 mg, day 14) was -0.17 µg/L, the “Change from Baseline for Prostate Specific Antigen, LS Mean” value (healthy human volunteers; males, 75 mg, day 14) was -0.13 µg/L and the “Change from Baseline for Prostate Specific Antigen, Comparison to Placebo Difference” value (healthy human volunteers; males, 75 mg, day 28) was 0.03 µg/L. The “Change from Baseline for Prostate Specific Antigen, LS Mean” value (healthy human volunteers; males, 75 mg, day 28) was 0.07 µg/L, the “Change from Baseline for Prostate Specific Antigen, Comparison to Placebo Difference” value (healthy human volunteers; males, 75 mg, day 35) was 0.00 µg/L and the “Change from Baseline for Prostate Specific Antigen, LS Mean” value (healthy human volunteers; males, 75 mg, day 35) was 0.03 µg/L. For the same compound, the “increase of exposure with dose” value (beagle dogs; dogs given 6 and 60 mg/kg/day, plateau at 60 mg/kg/day) was “less than dose proportional”, the “gender effect on exposure” value (beagle dogs; male vs female dogs) was “no gender effect” and the NOAEL at 28 days ([1]; both sexes, in vivo, 4 weeks oral gavage, highest dose administered) was 1500 mg/kg/day. The AUC(0-t) ([1]; female, plasma, oral, females, 1500 mg/kg/day, read-out: Mean steady-state systemic exposure (AUC0-24 hr)) was 217 µg·h/mL, the “systemic exposure (AUC0-24 hr) increase with dose” value (CD [Crl:CD (SD)] rats; 15, 150, 1500 mg/kg/day oral gavage) was “less-than-dose-proportional” and the unscheduled deaths (CD [Crl:CD (SD)] rats; 15-1500 mg/kg/day, 28 days) was “no unscheduled deaths”. The decrease in albumin (CD [Crl:CD (SD)] rats; 150 mg/kg/day) was 12%, the “decrease in total protein” value (CD [Crl:CD (SD)] rats; 150 mg/kg/day) was 9% and the “increase in alkaline phosphatase” value (CD [Crl:CD (SD)] rats; 150 mg/kg/day) was 1.33 fold. The decrease in albumin (CD [Crl:CD (SD)] rats; 1500 mg/kg/day) was 12%, the “decrease in total protein” value (CD [Crl:CD (SD)] rats; 1500 mg/kg/day) was 10% and the “increase in alkaline phosphatase” value (CD [Crl:CD (SD)] rats; 1500 mg/kg/day) was 1.45 fold. The “hepatic microsomal enzyme induction” value (CD [Crl:CD (SD)] rats; following 28 days of dosing) was “no evidence”, the EC50 ([2]; Homo sapiens, LNCaP, AR gene, read-out: LnCAP Gene Expression EC50 (nM) AR) was 1.64 nM and the “androgenicity in vitro in human prostate cancer cells” value ([2]; comparison with R1881) was “less androgenic than R1881”. For the same compound, the “Seminal Vesicle Wet Weights, Abs(Dif) − LSD” value (“Seminal Vesicle Wet Weights” below) (ORX Wistar male rats; ORX + Example 1 10 mg/kg/d without TE) was 1.411, the “Prostate Weight, % Sham” value (ORX Wistar male rats; [3]) was 42.7 % Sham and the “SV Weight, % Sham” value (ORX Wistar male rats; [3]) was 53.5 % Sham. For the same compound, the “Prostate Weights, Abs(Dif) − LSD” value (ORX Wistar male rats; [4]) was −0.11, the “Seminal Vesicle Wet Weights” value (ORX Wistar male rats; [4]) was −0.34 and the “Prostate Weight, % Sham” value (ORX Wistar male rats; [5]) was 30.3 % Sham. The “SV Weight, % Sham” value (ORX Wistar male rats; [5]) was 42.0 % Sham, the “Prostate Weights, Abs(Dif) − LSD” value (ORX Wistar male rats; [6]) was 0.036 and the “Seminal Vesicle Wet Weights” value (ORX Wistar male rats; [6]) was 0.078. The “Prostate Weight, % Sham” value (ORX Wistar male rats; ORX + TE 1 mg/kg/d + Example 1 30 mg/kg/d po) was 31.2 % Sham, the “Prostate Weights, Abs(Dif) − LSD” value (ORX Wistar male rats; [7]) was 0.025 and the “Seminal Vesicle Wet Weights” value (ORX Wistar male rats; [7]) was 0.536. For the same compound, the “prostate wet weight in mg normalized to body weight” value (ORX Wistar male rats; co-treatment with 1 mg/Kg TE) was “dose-dependent decrease” and the “seminal vesicle wet weight in mg normalized to body weight, induced by TE alone” value (ORX Wistar male rats; combination with TE 1 mg/Kg-day and various doses of Example 1) was “trend in decreasing”.

— patent publication US10799478B2, “Treatment of androgen deprivation therapy associated symptoms” (priority 2014, dated 2020)
